The values below are quoted from earlier work in patent US9789078B2, “Method of topically treating actinic keratosis with ingenol mebutate cycle therapy” (LEO Laboratories Limited, priority 2012, dated 2017).

The structures appear in SMILES notation. Read-outs that look alike come from different tables or passages of the source.

For this data set the following is noted: first treatment cycle, cited from earlier work.

For the compound `C/C=C(/C)C(=O)O[C@H]1C(C)=C[C@]23C(=O)[C@@H](C=C(CO)[C@@H](O)[C@]12O)[C@H]1[C@@H](C[C@H]3C)C1(C)C` [ingenol mebutate], the “time to resolution of local adverse events without sequelae” value runs as follows: (topical application to the face or scalp) at most 2 weeks; (topical application to the trunk or extremities) at most 4 weeks.
